The results in this text go back to patent US20250059164A1, “IRAK DEGRADERS AND USES THEREOF” (Kymera Therapeutics, Inc., priority 2023, published 2025).

The structures appear in SMILES notation.

The target of the assay is T1, IRAK4 (Homo sapiens, UniProt Q9NWZ3).
T1 construct: endogenous in cells; host or cells: OCI-LY10
T1 sequence (Q9NWZ3 1-460): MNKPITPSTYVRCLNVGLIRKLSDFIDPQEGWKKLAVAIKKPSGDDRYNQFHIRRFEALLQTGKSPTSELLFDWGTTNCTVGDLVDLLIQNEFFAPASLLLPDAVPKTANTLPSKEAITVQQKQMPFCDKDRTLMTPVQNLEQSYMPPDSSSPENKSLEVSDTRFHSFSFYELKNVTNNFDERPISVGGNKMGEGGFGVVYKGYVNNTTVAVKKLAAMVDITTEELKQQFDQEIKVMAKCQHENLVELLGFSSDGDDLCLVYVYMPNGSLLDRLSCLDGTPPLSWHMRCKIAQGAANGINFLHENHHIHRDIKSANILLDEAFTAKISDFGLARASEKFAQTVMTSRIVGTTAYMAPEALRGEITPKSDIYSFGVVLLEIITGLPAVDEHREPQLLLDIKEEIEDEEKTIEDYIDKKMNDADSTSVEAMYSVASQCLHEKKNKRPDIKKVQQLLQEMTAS
Put plainly: IRAK4 MSD degradation in OCI-LY10. It is filed as cell-based. The conditions noted are these: OCI-LY10 cells, 24 hrs, Meso Scale Discovery. In a few lines:
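Remaining IRAK4 protein measured by Meso Scale Discovery electrochemiluminescence sandwich assay on lysates of OCI-LY10 cells. Cells were exposed for 4 to 24 hours (37° C., 5% CO2) to eight 1:3-diluted concentrations starting at 1 to 10 μM. DC50 derived by three-parameter logistic fitting.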
What is called DC50 is the midpoint of the concentration-degradation curve. Low readings indicate degradation at low concentration, high ones degradation only at high concentration. For the compound `CN(C[C@H]1CC[C@H](n2cc3cc(NC(=O)c4cccc(C(F)(F)F)n4)c(C(C)(C)O)cc3n2)CC1)[C@@H]1CCN(c2cccc3c2n(C)c(=O)n3C2CCC(=O)NC2=O)C[C@@H]1F` (some centres unmarked) [I-69], the DC50 was less than 10 nM.
With `CN(C[C@H]1CC[C@H](n2cc3cc(NC(=O)c4cccc(C(F)(F)F)n4)c(C(C)(C)O)cc3n2)CC1)[C@H]1CCN(c2cccc3c2n(C)c(=O)n3C2CCC(=O)NC2=O)C[C@H]1F` (some centres unmarked) [I-70], the DC50 was less than 10 nM.
The compound `O=C1CCC(c2noc3c(NC(=O)CN4CCN(C[C@H]5CC[C@H](n6cc7cc(NC(=O)c8cccc(C(F)(F)F)n8)ncc7n6)CC5)CC4)cccc23)C(=O)N1` (some centres unmarked) [I-71] displayed a DC50 of 10 to 100 nM.
`O=C1CCC(Nc2ccc(N3CC(O)(CN4CCN(C[C@H]5CC[C@H](n6cc(NC(=O)c7cnn8ccc(N9C[C@H]%10C[C@@H]9CO%10)nc78)c(C(F)F)n6)CC5)CC4)C3)cc2)C(=O)N1` (some centres unmarked) [I-72] showed a DC50 of 10 to 100 nM.
The figure for `O=C1CCN(c2cncc3c(N4CC(CN5CCN(C[C@H]6CC[C@H](n7cc(NC(=O)c8cnn9ccc(N%10C[C@H]%11C[C@@H]%10CO%11)nc89)c(C(F)F)n7)CC6)CC5)C4)cccc23)C(=O)N1` [I-74] is less than 10 nM.
Then `CC(C)(O)c1cc2nn([C@H]3CC[C@H](CN4CCN(c5ccc(C6CCC(=O)NC6=O)c(Cl)c5)CC4)CC3)cc2cc1NC(=O)c1cccc(C(F)(F)F)n1` (some centres unmarked) [I-76], with less than 10 nM; and `CC(C)(O)c1cc2nn([C@H]3CC[C@H](CN4CCN(c5cccc(NC6CCC(=O)NC6=O)c5)CC4)CC3)cc2cc1NC(=O)c1cccc(C(F)(F)F)n1` (some centres unmarked) [I-77], with 10 to 100 nM; and `COc1cc2nn([C@H]3CC[C@H](CN(C)[C@H]4CCN(c5cccc6c5n(C)c(=O)n6C5CCC(=O)NC5=O)C[C@@H]4F)CC3)cc2cc1NC(=O)c1cccc(C(F)(F)F)n1` (some centres unmarked) [I-80], with less than 10 nM.
In the case of `COc1cc2nn([C@H]3CC[C@H](CN(C)[C@@H]4CCN(c5cccc6c5n(C)c(=O)n6C5CCC(=O)NC5=O)C[C@@H]4F)CC3)cc2cc1NC(=O)c1cccc(C(F)(F)F)n1` (some centres unmarked) [I-81], the DC50 is less than 10 nM.
In turn, `COc1cc2nn([C@H]3CC[C@H](CN(C)[C@H]4CCN(c5cccc6c5n(C)c(=O)n6C5CCC(=O)NC5=O)C[C@H]4F)CC3)cc2cc1NC(=O)c1cccc(C(F)(F)F)n1` (some centres unmarked) [I-82] yielded a half-maximal degradation concentration (DC50) of less than 10 nM.
In turn, `N#Cc1cncc(C(=O)Nc2cc3cn([C@H]4CC[C@H](CN5CCN(CC(=O)Nc6cccc7c(C8CCC(=O)NC8=O)noc67)CC5)CC4)nc3cn2)c1` (some centres unmarked) [I-84] yielded a DC50 greater than 200 nM.
Regarding `Cn1nc(C2CCC(=O)NC2=O)c2cccc(N3CC(O)(CN4CCN(C[C@H]5CC[C@H](n6cc(NC(=O)c7cnn8ccc(N9C[C@H]%10C[C@@H]9CO%10)nc78)c(C(F)F)n6)CC5)CC4)C3)c21` (some centres unmarked) [I-86], the DC50 was less than 10 nM.
As to `Cc1nn([C@@H]2CCC(=O)NC2=O)c2cccc(N3CC(CN4CCN(C[C@H]5CC[C@H](n6cc(NC(=O)c7cnn8ccc(N9C[C@H]%10C[C@@H]9CO%10)nc78)c(C(F)F)n6)CC5)CC4)C3)c12` [I-87], the DC50 was less than 10 nM.
On to `Cc1nn([C@H]2CCC(=O)NC2=O)c2cccc(N3CC(CN4CCN(C[C@H]5CC[C@H](n6cc(NC(=O)c7cnn8ccc(N9C[C@H]%10C[C@@H]9CO%10)nc78)c(C(F)F)n6)CC5)CC4)C3)c12` [I-88], for which the DC50 was less than 10 nM.
In turn, `COc1cc2nn([C@H]3CC[C@H](CN(C)[C@@H]4CCN(c5cccc6c5n(C)c(=O)n6C5CCC(=O)NC5=O)C[C@H]4F)CC3)cc2cc1NC(=O)c1cccc(C(F)(F)F)n1` (some centres unmarked) [I-90] yielded a DC50 of less than 10 nM.
`Cn1nc(N2CCC(=O)NC2=O)c2cccc(N3CC(CN4CCN(C[C@H]5CC[C@H](n6cc(NC(=O)c7cnn8ccc(N9C[C@H]%10C[C@@H]9CO%10)nc78)c(C(F)F)n6)CC5)CC4)C3)c21` [I-91]: the 50% degradation concentration (DC50) was in the range of 10 to 100 nM.
The compound `Cc1nn(C2CCC(=O)NC2=O)c2cc(F)cc(N3CC(CN4CCN(C[C@H]5CC[C@H](n6cc(NC(=O)c7cnn8ccc(N9C[C@H]%10C[C@@H]9CO%10)nc78)c(C(F)F)n6)CC5)CC4)C3)c12` (some centres unmarked) [I-92] displayed a DC50 of less than 10 nM.
The figure for `Cn1nc(C2CCC(=O)NC2=O)c2cccc(N3CC(CN4CCN(C[C@H]5CC[C@H](n6cc(NC(=O)c7cnn8ccc(N9C[C@H]%10C[C@@H]9CO%10)nc78)c(C(F)F)n6)CC5)CC4)C3)c21` (some centres unmarked) [I-93] is less than 10 nM; for `Cn1c(=O)n(C2CCC(=O)NC2=O)c2cccc([C@@H]3CCN(C[C@H]4C[C@H](n5cc6cc(NC(=O)c7cccc(C(F)(F)F)n7)c(C#N)cc6n5)C4)C[C@H]3F)c21` (some centres unmarked) [I-94] it is less than 10 nM.
Consider `Cn1c(=O)n(C2CCC(=O)NC2=O)c2cccc([C@H]3CCN(C[C@H]4CC[C@H](c5nc6ccc(NC(=O)c7cccc(C(F)(F)F)n7)cc6s5)CC4)C[C@@H]3F)c21` (some centres unmarked) [I-97], for which the DC50 was 10 to 100 nM.
In turn, `Cn1c(=O)n(C2CCC(=O)NC2=O)c2cccc([C@H]3CCN(C[C@H]4CC[C@H](c5nc6cc(C(C)(C)O)c(NC(=O)c7cccc(C(F)(F)F)n7)cc6s5)CC4)C[C@@H]3F)c21` (some centres unmarked) [I-103] had a DC50 of less than 10 nM.
For the compound `CN(C[C@H]1CC[C@H](c2nc3cc(C(C)(C)O)c(NC(=O)c4cccc(C(F)(F)F)n4)cc3s2)CC1)[C@H]1CCN(c2cccc3c2n(C)c(=O)n3C2CCC(=O)NC2=O)C[C@H]1F` (some centres unmarked) [I-105], the DC50 was less than 10 nM.
Then `Cn1c(=O)n(C2CCC(=O)NC2=O)c2cccc(OC3CC4(CCN(Cc5ccc(-n6cc(NC(=O)c7cnn8ccc(N9C[C@H]%10C[C@@H]9CO%10)nc78)c(C(F)F)n6)cc5)CC4)C3)c21` (some centres unmarked) [I-113], with less than 10 nM; and `Cn1c(=O)n(C2CCC(=O)NC2=O)c2cccc(N3CC(C4CCN([C@H]5CC[C@H](n6cc(NC(=O)c7cnn8ccc(N9C[C@H]%10C[C@@H]9CO%10)nc78)c(C(F)F)n6)CC5)CC4(F)F)C3)c21` (some centres unmarked) [I-115], with less than 10 nM; and `COc1cc2nn([C@H]3CC[C@H](CN4CCN(c5cccc6c5c(C)nn6C5CCC(=O)NC5=O)CC4)CC3)cc2cc1NC(=O)c1cncc(C)c1` (some centres unmarked) [I-118], with 10 to 100 nM.
Then `O=C1CCN(c2cncc3c(N4CC(CO[C@@H]5CCN(C[C@H]6CC[C@H](n7cc(NC(=O)c8cnn9ccc(N%10C[C@H]%11C[C@@H]%10CO%11)nc89)c(C(F)F)n7)CC6)C[C@@H]5F)C4)cccc23)C(=O)N1` [I-120], with less than 10 nM; and `Cn1nc(C2CCC(=O)NC2=O)c2cccc([C@@H]3CCN(C[C@H]4CC[C@H](n5cc6cc(NC(=O)c7cccc(C(F)(F)F)n7)ccc6n5)CC4)C[C@H]3F)c21` (some centres unmarked) [I-122], with less than 10 nM; and `Cn1c(=O)n(C2CCC(=O)NC2=O)c2cccc(N3CC(COC[C@H]4CC[C@H](n5cc6cc(NC(=O)c7cccc(C(F)(F)F)n7)ccc6n5)CC4)C3)c21` (some centres unmarked) [I-123], with 10 to 100 nM.
Take `O=C1CC[C@H](c2ccc(N3CC(N4CCN([C@H]5CC[C@H](n6cc(NC(=O)c7cnn8ccc(N9C[C@H]%10C[C@@H]9CO%10)nc78)c(C(F)F)n6)CC5)CC4)C3)cc2Cl)C(=O)N1` [I-124]: the DC50 is less than 10 nM.
Turning to `O=C1CC[C@@H](c2ccc(N3CC(N4CCN([C@H]5CC[C@H](n6cc(NC(=O)c7cnn8ccc(N9C[C@H]%10C[C@@H]9CO%10)nc78)c(C(F)F)n6)CC5)CC4)C3)cc2Cl)C(=O)N1` [I-125], the 50% degradation concentration (DC50) fell in the range of 10 to 100 nM.
With `Cn1c(=O)n(C2CCC(=O)NC2=O)c2cccc(N3CC(COC[C@H]4CC[C@H](n5cc6cc(NC(=O)c7cccc(C(F)(F)F)c7)ccc6n5)CC4)C3)c21` (some centres unmarked) [I-126], the DC50 was 10 to 100 nM.
With `COc1cc2nn([C@H]3CC[C@H](CN4CCC5(CCN(c6ccc(C7CCC(=O)NC7=O)c(Cl)c6)CC5)C(F)(F)C4)CC3)cc2cc1NC(=O)c1cncc(C#N)c1` (some centres unmarked) [I-130], the DC50 lay in the range of 10 to 100 nM.
